Measured values reported in patent publication US10201510B2, “Compositions and methods for treatment of neurological symptoms associated with alcohol-withdrawal and for convulsive seizure” (Oregon Health & Science University, priority 2005, dated 2019).

Tests used:
[1] = system: withdrawal seizures in alcohol-dependent mice; assay: Predicted anti-seizure activity; type: in vivo, mouse; design: key: la = long-acting; The ++ farnesol activity was arbitrary; details: for Predicted anti-seizure activity: long-acting (la): duration flag in brackets
L-type Ca^2+ channel = molecular target: T1, L-type Ca^2+ channel (Mus musculus, UniProt Q01815); assay: Reversibility of inhibition of L-type Ca^2+ channel mediated arterial contraction after wash-out
T1 construct: KCl-induced contraction in isolated arteries; from tissue; host or cells: mouse mesenteric arteries
Method: (§1) Contractions obtained after 30 min. incubation with the test compounds (left portion of graph), and after a 60-min. wash-out (right portion of graph).
(§2) Moreover, farnesylamine is likely to be metabolized through pathways different from those involved in farnesol clearance.

[2] = molecular target: T2, smooth muscle voltage-gated, L-type (Cav1.2 or α1C subunit) Ca^2+ channels (Mus musculus, UniProt Q01815); assay: KCl-induced contraction in isolated arteries; details: FIG. 5 / FIG. 6 (25 μM)
T2 construct: KCl-induced contraction in isolated arteries; from tissue; host or cells: mouse mesenteric arteries
Method: as §1
(§3) To identify compounds with enhanced L-type Ca^2+ channel blocker activity, several compounds were either purchased or synthesized, and then tested for their ability to inhibit: (1) KCl-induced contraction in isolated arteries; (2) KCl-induced Ca^2+ signaling in fura-2 loaded arteries; and (3) KCl-induced Ca^2+ signaling in fura-2 loaded PC12 cells, all using art-recognized methods established in the applicants' laboratories (Roullet, 1993, 1994, 1995, 1997; De Lima, 1999). Arteries express smooth muscle voltage-gated, L-type (Cav1.2 or α1C subunit) Ca^2+ channels, whereas PC12 cells constitutively express the neuronal voltage-gated, L-type (Cav1.3) α1D subunit (Ertel, 2000).

microsomal FolDH = assay: Recognition by microsomal FolDH; type: in vitro ADME
Storage stability = type: physicochemical; details: −20° C., pure form or ethanol solutions (typically 25 mM)
Method: According to the present invention, the synthesis of geranylresorcinol (GR) (4) is based on the condensation of geranyl bromide (1) and 3-hydroxyphenyl benzoate (2), followed by alkaline cleavage of the formed ester (3). The method generates pure GR with an overall yield of 40%. The compound is stable when stored at −20° C. either in its pure form or in ethanol solutions (typically prepared at 25 mM). Long-term storage may be associated with some darkening of the product, as typically observed with electron-rich phenols, but it is not associated with significant loss of activity (on arteries).

ADH [3] = assay: Metabolism / substrate recognition by ADH; type: in vitro ADME
[4] = molecular target: T3, neuronal voltage-gated, L-type (Cav1.3) α1D subunit Ca^2+ channel (Rattus norvegicus, UniProt P27732); assay: KCl-induced Ca^2+ signaling in fura-2 loaded PC12 cells; type: cell-based
T3 construct: KCl-induced intracellular Ca^2+ signaling in non-NGF treated PC12 cells loaded with fura-2; endogenous in cells; host or cells: PC12 cells (non-NGF treated)
Excerpt: According to particular aspects of the present invention, the alcohol group is essential for activity. Additionally, the activity of farnesol metabolites on neuronal voltage-gated L-type Ca^2+ channels was investigated. […] The Ca^2+ channel activity is expressed as % inhibition of KCl-induced intracellular Ca^2+ signaling in non-NGF differentiated PC12 cells loaded with fura-2 (see Materials and Methods under Example 2). The assayed molecules are: FPP—farnesyl pyrophosphate; FOH—all-trans farnesol; FCHO—all-trans farnesal; and FCOOH—all-trans farnesoic acid (prepared by Dr. McDougal).
as §3
Ca^2+ channel activity is expressed as % inhibition of KCl-induced intracellular Ca^2+ signaling in non-NGF treated PC12 cells loaded with fura-2.

[5] = molecular target: T4, voltage-gated L-type Ca^2+ channels (Homo sapiens, UniProt Q13936); details: cited from earlier work
T4 construct: host or cells: arteries / vascular smooth muscle cells

[6] = molecular target: T5, N-type Ca^2+ channel (α1B subunit) (Homo sapiens, UniProt Q00975); assay: Patch-clamp on HEK cells transfected with human α1B (Cav2.2) subunits; type: cell-based; details: at 5 min; Hp=−100 mV; 20 mM Ba^2+
T5 construct: expressed in transfected cells; host or cells: HEK cells
Method: FIGS. 4A and 4B show neuronal (α1D subunit) L-type Ca^2+ channel (Ca^2+ signaling in fura-2 loaded PC12 cells) (FIG. 4A); on neuronal (α1B subunit) N-type Ca^2+ channel (α1B-transfected HEK cells; as in Roullet, 1999) (FIG. 4B). Current-voltage relationship (IV) recording conditions were: holding potential (hp)=−100 mV; 20 mM Ba^2+. Inhibition of N-type currents was ˜90% at 5 min.
Experiments (FIG. 4) using patch-clamp techniques and HEK cells transfected with human α1B (Cav2.2) subunits further indicate that, like farnesol, retinol also blocks N-type calcium channels. FIGS. 4A and 4B show, according to preferred aspects of the present invention, the effect of all-trans retinol on: neuronal (α1D subunit) L-type Ca^2+ channel (Ca^2+ signaling in fura-2 loaded PC12 cells) (FIG. 4A); an on neuronal (α1B subunit) N-type Ca^2+ channel (α1B-transfected HEK cells; as in Roullet, 1999) (FIG. 4B). IV recording conditions were: Hp=−100 mV; 20 mM Ba^2+. Inhibition of N-type currents was ˜90% at 5 min.

ADH [7] = details: cited from earlier work
[8] = molecular target: T3, neuronal voltage-gated, L-type (Cav1.3) α1D subunit Ca^2+ channel; details: PC12 cells; cited from earlier work
[9] = molecular target: T6, human recombinant monoamine oxidase A (Homo sapiens, UniProt P21397); assay: Monoamine oxidase substrate test; type: in vitro ADME; details: rat liver mitochondrial membranes and human recombinant monoamine oxidase A and B
T6 sequence (P21397 1-527): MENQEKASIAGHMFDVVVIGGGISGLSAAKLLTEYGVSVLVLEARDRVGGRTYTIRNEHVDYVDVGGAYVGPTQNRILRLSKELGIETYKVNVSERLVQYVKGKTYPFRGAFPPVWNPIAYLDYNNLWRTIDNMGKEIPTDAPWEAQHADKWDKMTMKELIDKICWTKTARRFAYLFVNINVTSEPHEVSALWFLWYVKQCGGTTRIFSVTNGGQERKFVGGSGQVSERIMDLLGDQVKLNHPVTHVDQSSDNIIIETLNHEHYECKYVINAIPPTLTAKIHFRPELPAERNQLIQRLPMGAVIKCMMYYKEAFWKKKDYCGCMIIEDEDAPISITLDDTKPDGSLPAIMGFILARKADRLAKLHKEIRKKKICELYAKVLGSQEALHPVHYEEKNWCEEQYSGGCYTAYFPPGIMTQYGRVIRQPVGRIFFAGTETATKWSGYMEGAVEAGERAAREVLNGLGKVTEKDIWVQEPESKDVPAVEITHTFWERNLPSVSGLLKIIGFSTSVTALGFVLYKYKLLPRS
Excerpt: as §2

T1 sequence (Q01815 whole entry): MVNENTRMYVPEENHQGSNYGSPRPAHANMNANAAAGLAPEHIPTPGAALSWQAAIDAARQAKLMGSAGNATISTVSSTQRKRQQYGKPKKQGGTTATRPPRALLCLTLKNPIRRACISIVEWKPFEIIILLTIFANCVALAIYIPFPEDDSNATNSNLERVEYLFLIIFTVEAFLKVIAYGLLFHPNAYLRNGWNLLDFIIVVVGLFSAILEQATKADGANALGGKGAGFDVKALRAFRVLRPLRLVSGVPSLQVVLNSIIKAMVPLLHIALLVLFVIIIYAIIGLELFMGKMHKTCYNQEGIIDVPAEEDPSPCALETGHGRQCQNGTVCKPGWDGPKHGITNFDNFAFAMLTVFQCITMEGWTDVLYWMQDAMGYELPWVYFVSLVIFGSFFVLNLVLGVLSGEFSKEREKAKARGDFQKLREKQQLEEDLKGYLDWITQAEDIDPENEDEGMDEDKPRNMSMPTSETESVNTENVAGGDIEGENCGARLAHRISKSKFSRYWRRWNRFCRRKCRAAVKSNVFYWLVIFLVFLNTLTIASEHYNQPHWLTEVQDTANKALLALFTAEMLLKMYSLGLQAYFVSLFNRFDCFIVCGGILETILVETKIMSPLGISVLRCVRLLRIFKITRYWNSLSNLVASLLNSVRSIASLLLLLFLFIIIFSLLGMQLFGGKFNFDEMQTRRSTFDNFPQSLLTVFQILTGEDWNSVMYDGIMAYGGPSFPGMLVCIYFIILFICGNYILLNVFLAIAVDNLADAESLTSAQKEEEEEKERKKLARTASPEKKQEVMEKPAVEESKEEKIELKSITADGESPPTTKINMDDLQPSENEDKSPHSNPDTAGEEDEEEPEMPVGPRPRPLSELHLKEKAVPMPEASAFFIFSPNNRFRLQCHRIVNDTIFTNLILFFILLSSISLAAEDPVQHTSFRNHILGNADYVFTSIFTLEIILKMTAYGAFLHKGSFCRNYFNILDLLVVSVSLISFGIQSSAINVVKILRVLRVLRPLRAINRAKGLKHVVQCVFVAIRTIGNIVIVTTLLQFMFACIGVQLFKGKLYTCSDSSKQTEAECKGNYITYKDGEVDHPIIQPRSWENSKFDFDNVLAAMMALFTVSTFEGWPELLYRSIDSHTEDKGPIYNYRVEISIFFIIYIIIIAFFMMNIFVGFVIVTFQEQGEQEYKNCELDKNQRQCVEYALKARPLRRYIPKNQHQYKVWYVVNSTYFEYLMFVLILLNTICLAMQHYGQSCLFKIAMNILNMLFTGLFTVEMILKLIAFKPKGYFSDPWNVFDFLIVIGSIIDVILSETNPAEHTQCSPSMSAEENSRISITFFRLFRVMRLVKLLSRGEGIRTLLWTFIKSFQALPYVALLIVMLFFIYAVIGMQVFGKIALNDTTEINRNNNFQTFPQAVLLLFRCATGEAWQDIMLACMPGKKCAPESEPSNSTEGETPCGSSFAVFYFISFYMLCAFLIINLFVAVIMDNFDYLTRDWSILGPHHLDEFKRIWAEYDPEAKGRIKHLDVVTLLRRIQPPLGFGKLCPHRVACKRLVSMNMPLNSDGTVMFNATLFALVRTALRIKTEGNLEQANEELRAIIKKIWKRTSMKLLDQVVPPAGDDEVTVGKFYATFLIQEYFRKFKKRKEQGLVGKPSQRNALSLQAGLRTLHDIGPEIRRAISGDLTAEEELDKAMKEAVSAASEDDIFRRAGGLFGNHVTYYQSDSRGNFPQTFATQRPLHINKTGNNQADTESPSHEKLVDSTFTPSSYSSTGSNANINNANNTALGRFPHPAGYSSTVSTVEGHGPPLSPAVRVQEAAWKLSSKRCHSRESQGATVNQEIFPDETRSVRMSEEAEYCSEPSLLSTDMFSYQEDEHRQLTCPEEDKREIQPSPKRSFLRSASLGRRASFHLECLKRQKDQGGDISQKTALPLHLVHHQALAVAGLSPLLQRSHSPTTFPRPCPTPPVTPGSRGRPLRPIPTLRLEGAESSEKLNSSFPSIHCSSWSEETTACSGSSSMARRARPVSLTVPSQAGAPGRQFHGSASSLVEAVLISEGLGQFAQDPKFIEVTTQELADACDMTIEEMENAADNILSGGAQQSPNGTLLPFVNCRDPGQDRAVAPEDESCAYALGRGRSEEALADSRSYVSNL
T1 sequence (P54285 whole entry partner): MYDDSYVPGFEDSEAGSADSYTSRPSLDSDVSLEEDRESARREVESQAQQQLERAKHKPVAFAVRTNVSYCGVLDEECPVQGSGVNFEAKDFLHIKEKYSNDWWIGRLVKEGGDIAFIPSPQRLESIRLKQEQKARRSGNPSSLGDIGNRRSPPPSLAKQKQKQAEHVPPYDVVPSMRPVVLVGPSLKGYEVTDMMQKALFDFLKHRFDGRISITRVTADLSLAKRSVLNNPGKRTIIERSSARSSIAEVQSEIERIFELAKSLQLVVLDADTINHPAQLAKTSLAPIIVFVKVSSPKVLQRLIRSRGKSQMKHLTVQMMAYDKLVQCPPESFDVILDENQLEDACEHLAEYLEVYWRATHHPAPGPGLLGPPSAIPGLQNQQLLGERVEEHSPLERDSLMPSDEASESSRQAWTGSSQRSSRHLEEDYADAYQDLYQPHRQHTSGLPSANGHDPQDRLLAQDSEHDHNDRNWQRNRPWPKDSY
T1 sequence (O08532 25-956 partner limits assumed): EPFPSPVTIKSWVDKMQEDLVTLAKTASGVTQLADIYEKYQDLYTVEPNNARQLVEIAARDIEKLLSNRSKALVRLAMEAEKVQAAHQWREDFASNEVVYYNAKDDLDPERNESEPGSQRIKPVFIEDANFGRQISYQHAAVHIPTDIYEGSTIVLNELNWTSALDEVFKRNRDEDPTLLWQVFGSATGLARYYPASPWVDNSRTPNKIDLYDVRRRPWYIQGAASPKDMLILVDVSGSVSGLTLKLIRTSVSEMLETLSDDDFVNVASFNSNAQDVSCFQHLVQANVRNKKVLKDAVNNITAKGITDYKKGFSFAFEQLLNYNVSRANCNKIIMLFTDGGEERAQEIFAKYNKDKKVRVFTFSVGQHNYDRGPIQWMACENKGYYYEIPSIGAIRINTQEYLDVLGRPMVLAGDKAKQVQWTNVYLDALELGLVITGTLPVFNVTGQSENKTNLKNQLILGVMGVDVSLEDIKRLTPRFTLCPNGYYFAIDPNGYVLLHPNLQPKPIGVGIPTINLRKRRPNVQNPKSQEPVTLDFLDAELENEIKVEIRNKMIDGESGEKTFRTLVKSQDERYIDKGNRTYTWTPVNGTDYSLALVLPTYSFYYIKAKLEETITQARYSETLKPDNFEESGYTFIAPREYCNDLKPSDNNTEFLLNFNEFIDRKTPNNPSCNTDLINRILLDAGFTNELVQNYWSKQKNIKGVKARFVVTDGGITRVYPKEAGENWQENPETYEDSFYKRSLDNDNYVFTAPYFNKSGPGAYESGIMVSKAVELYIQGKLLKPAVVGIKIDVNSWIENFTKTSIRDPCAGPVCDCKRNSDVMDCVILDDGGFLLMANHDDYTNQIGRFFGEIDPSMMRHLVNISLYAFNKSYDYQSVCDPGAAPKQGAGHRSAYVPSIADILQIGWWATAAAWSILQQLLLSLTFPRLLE
T1 sequence (O08532 957-1103 partner limits assumed): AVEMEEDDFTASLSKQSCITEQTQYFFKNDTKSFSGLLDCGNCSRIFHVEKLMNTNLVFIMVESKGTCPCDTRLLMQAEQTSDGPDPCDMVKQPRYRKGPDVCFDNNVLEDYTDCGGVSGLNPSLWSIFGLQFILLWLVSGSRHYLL
T2 sequence (Q01815 whole entry): as the sequence (Q01815 whole entry) above
T2 sequence (P54285 whole entry partner): as the sequence (P54285 whole entry partner) above
T2 sequence (O08532 25-956 partner limits assumed): as the sequence (O08532 25-956 partner limits assumed) above
T2 sequence (O08532 957-1103 partner limits assumed): as the sequence (O08532 957-1103 partner limits assumed) above

| reversibility of effect compared with farnesol (L-type Ca^2+ channel) | recognition by microsomal FolDH (microsomal FolDH) | storage stability (Storage stability) | substrate for ADH (ADH [3]) | activity on neuronal L-type Ca^2+ channels compared with all-trans farnesol ([4]; non-NGF PC12 cells, fura-2, FIG. 1 / FIG. 3) | Inhibition of N-type currents [6] | IC50 ([4]; read-out: IC50 on L-type Ca^2+ channels) | inhibition at 25 µM (L-type Ca^2+ channel; 25 μM, 30 min incubation, 60-min. wash-out, read-out: inhibition of arterial contraction still observed after wash-out) | SMILES | Predicted anti-seizure activity: long-acting (la) [1] | activity on KCl-induced arterial contraction [2] | Predicted anti-seizure activity ([1]; based on effect on L-type Ca^2+ channels, CLogP and reversibility or ADH-FolDH recognition) | activity on Ca^2+ channels / smooth muscle L-type channels (literature / prior studies) [5] | metabolism by class IV ADH (ADH [7]) | activity on neuronal L-type Ca^2+ channels (literature / prior studies) [8] | substrate for monoamine oxidase [9] |
| --- | --- | --- | --- | --- | --- | --- | --- | --- | --- | --- | --- | --- | --- | --- | --- |
| less reversible | not recognized by microsomal FolDH | stable | very poor substrate for ADH | strongly inhibits | – | – | – | CC(C)=CCC/C(C)=C/COc1cccc(O)c1 [Geranylresorcinol, (E)-3-(3,7-dimethylocta-2,6-dienyloxy)phenol] | la | strongly inhibits | – | – | – | – | – |
| significantly less reversible | – | – | – | – | ~90% | 5 µM | – | CC1=C(/C=C/C(C)=C/C=C/C(C)=C/CO)C(C)(C)CCC1 [Retinol, (2E,4E,6E,8E)-3,7-dimethyl-9-(2,6,6-trimethylcyclohex-1-enyl)nona-2,4,6,8-tetraen-1-ol] | la | – | ++ | blocks efficiently | metabolized by class IV ADH | blocks efficiently | – |
| relatively less reversible | – | – | – | – | – | – | ~80% | CC(C)=CCC/C(C)=C/CC/C(C)=C/CN [Farnesylamine, (2E,6E)-3,7,11-trimethyldodeca-2,6,10-trien-1-amine] | la | more potent inhibitor of arterial contractions than farnesol | – | – | – | – | specific substrate for monoamine oxidase A |
